Literature values in patent US20060155301A1, “Methods and devices usable in eye surgery” (priority 2002, published 2006).
Read-outs that look alike come from different tables or passages of the source.

Key:
[1] = tested on: lens epithelial cells; settings: in vitro
[2] = tested on: lens epithelial cells; settings: EDTA solution in irrigation solution, cadaver eyes
[3] = tested on: lens epithelial cells; settings: 2% trypsin solution in irrigation solution, cadaver eyes

Row | Molecule | inhibiting lens epithelial cells proliferation [1] | also measured
1 | COc1cccc2c1C(=O)c1c(O)c3c(c(O)c1C2=O)C[C@@](O)(C(=O)CO)C[C@@H]3O[C@H]1C[C@H](N)[C@H](O)[C@H](C)O1 [doxorubicin] | effective | –
2 | CO[C@@]12[C@H](COC(N)=O)C3=C(C(=O)C(C)=C(N)C3=O)N1C[C@@H]1N[C@@H]12 [mitomycin] | effective | –
3 | CC(=O)O[C@H]1C(=O)[C@@]2(C)[C@H]([C@H](OC(=O)c3ccccc3)[C@]3(O)C[C@H](OC(=O)[C@H](O)[C@@H](NC(=O)c4ccccc4)c4ccccc4)C(C)=C1C3(C)C)[C@]1(OC(C)=O)CO[C@@H]1C[C@@H]2O [taxol] | effective | –
4 | CN(Cc1cnc2nc(N)nc(N)c2n1)c1ccc(C(=O)N[C@@H](CCC(=O)O)C(=O)O)cc1 [methotrexate] | effective | –
5 | COc1cc2c(c(OC)c1OC)-c1ccc(OC)c(=O)cc1[C@@H](NC(C)=O)CC2 [colchicines] | effective | –
6 | O=C(O)CN(CCN(CC(=O)O)CC(=O)O)CC(=O)O [EDTA, Ethylenediamine tetraacetic acid] | – | separation of lens epithelial cells [2]: the anterior lens epithelial cells could be separated
7 | O=c1[nH]cc(F)c(=O)[nH]1 [5 fluorouracil] | effective | –
8 | COc1cccc2c1C(=O)c1c(O)c3c(c(O)c1C2=O)C[C@@](O)(C(C)=O)C[C@@H]3O[C@H]1C[C@H](N)[C@H](O)[C@H](C)O1 [daunomycin/daunorubicin] | effective | –
9 | trypsin (protein, UniProt P00760 24-246, looked up, enzyme evaluated for separation of lens epithelial cells) Serine protease 1: IVGGYTCGANTVPYQVSLNSGYHFCGGSLINSQWVVSAAHCYKSGIQVRLGEDNINVVEGNEQFISASKSIVHPSYNSNTLNNDIMLIKLKSAASLNSRVASISLPTSCASAGTQCLISGWGNTKSSGTSYPDVLKCLKAPILSDSSCKSAYPGQITSNMFCAGYLEGGKDSCQGDSGGPVVCSGKLQGIVSWGSGCAQKNKPGVYTKVCNYVSWIKQTIASN | – | damage to the zonules [3]: the zonules were damaged; separation of lens epithelial cells [3]: lens epithelial cells were stripped in places
